Source: patent US20040106626A1, “6-Membered unsaturated heterocyclic compounds useful for selective inhibition of the coagulation cascade” (Pharmacia Corporation, priority 2001, published 2004)
Counter-ions that a name gives are not always drawn.

What was measured:
Type in all cases: biochemical
[1] = target: T1, Human factor Xa (Homo sapiens, UniProt P00742); test: Xa assay (chromogenic substrate S-2765); conditions: reported only as less than or greater than 30 uM; read-out: Factor Xa (II) IC50
T1 construct: purchased Enzyme Research Laboratories, South Bend Ind
How it was run: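 Chromogenic readout: S-2765 hydrolysis (0.15 mM) by 0.3 nM human FXa was monitored at 405 nm after 60 min at room temperature, with a time-zero background read. Buffer: 50 mM Tris-HCl, pH 8.0, 100 mM NaCl, 0.1% BSA. Inhibition is relative to buffer-only controls.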

[2] = target: T2, Human thrombin (Homo sapiens, UniProt P00734); test: Thrombin assay (chromogenic substrate); conditions: reported only as less than or greater than 30 uM; read-out: Thrombin (II) IC50
T2 construct: converts prothrombin (II) to thrombin (IIa); purchased Calbiochem, La Jolla, Calif
How it was run: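 Percent inhibition derived by comparing OD405 nm of compound-treated and control samples. Thrombin cleavage of a p-nitroanilide chromogenic substrate provides the signal.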

[3] = target: T3, recombinant soluble tissue factor and recombinant human factor VIIa (TF-VIIa) (Homo sapiens, UniProt P08709); test: TF-VIIa assay (chromogenic substrate hydrolysis); conditions: reported only as less than or greater than 0.1 uM
T3 construct: conversion of coagulation factor VII to VIIa by factor Xa; purchased American Diagnostica, Greenwich CT; host or cells: soluble TF made in house in E. coli
How it was run: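 Chromogenic read at OD405, compared with control for percent inhibition. Substrate N-methylsulfonyl-D-phe-gly-arg-p-nitroaniline at 0.4 mM is cleaved by recombinant human VIIa (2 nM) complexed with soluble TF (100 nM). Buffer: pH 8.0 Tris-HCl 50 mM, CaCl2 5 mM, NaCl 100 mM, BSA 0.1%.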

[4] = test system: Normal human pooled plasma; test: Prothrombin time (PT) clotting assay; conditions: concentration at which prothrombin time is prolonged by 2x normal, reported as less than or greater than 50 uM
How it was run: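 Normal human pooled plasma incubated with 100 uM compound or saline, then thromboplastin (human tissue factor) added and clotting time recorded in a coagulation machine. Compounds exceeding 3× normal PT (11.0 s) are titrated to find the concentration doubling PT.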

T3 sequence (P08709 213-466 limits assumed): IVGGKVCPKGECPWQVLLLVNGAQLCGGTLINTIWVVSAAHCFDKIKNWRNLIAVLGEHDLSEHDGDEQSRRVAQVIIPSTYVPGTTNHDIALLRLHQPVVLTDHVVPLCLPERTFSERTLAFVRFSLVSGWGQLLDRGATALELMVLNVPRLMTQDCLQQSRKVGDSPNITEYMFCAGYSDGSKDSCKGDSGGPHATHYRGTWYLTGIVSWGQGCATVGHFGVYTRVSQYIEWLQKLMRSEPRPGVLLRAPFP
T3 sequence (P08709 61-212 limits assumed): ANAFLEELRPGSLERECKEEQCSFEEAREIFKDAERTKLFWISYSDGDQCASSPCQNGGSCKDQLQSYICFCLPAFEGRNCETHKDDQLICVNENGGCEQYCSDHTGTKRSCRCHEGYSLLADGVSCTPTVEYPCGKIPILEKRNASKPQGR
T3 sequence (P13726 33-251 partner limits assumed): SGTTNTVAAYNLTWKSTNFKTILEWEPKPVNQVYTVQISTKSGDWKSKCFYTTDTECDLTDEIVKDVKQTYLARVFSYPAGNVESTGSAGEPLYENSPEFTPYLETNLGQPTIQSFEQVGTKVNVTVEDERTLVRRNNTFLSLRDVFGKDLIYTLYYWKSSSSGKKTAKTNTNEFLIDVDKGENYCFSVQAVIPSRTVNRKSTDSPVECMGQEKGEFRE
T1 sequence (P00742 235-488 limits assumed): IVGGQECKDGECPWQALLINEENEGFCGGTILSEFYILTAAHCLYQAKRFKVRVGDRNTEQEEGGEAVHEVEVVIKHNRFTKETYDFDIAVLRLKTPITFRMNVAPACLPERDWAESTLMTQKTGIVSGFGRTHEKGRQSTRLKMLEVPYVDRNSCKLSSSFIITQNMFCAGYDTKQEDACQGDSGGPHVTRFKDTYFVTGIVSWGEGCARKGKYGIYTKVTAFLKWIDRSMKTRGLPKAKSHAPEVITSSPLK
T1 sequence (P00742 41-179 limits assumed): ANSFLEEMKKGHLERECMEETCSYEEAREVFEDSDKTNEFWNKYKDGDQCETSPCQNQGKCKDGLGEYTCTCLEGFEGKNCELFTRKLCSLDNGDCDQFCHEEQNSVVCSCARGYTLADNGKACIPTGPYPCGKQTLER

Row | Compound | IC50 [1] [µM] | IC50 [2] [µM] | IC50 [3] [µM] | PT (Prothrombin time) 2xPT [4] [µM]
1 | CC(C)Nc1ncc(-c2cc(N)cc(NCc3ccsc3)c2)n(CC(=O)NCc2ccc(C(=N)N)cc2)c1=O [Example 103] | > 30 | > 30 | < 0.1 | <50.0
2 | CCCC(C)C(=O)Nc1cc(N)cc(-c2cnc(NC(C)C)c(=O)n2CC(=O)NCc2ccc(C(=N)N)cc2)c1 (stereo not shown) [Example 104] | > 30 | < 30 | < 0.1 | <50.0
3 | COc1cccc(CC(=O)Nc2cc(N)cc(-c3cnc(NC(C)C)c(=O)n3CC(=O)NCc3ccc(C(=N)N)cc3)c2)c1 [Example 105] | > 30 | > 30 | < 0.1 | <50.0
4 | CC(C)Nc1ncc(-c2cc(N)cc(NC(=O)CCc3ccccc3)c2)n(CC(=O)NCc2ccc(C(=N)N)cc2)c1=O [Example 106] | > 30 | > 30 | < 0.1 | <50.0
5 | CC(C)Nc1ncc(-c2cc(N)cc(NC(=O)CCC3CCCC3)c2)n(CC(=O)NCc2ccc(C(=N)N)cc2)c1=O [Example 107] | > 30 | > 30 | < 0.1 | <50.0
6 | CCCc1ccc(C(=O)Nc2cc(N)cc(-c3cnc(NC(C)C)c(=O)n3CC(=O)NCc3ccc(C(=N)N)cc3)c2)cc1 [Example 108] | > 30 | < 30 | < 0.1 | <50.0
7 | CC(C)Nc1ncc(-c2cc(N)cc(NC(=O)c3ccccc3)c2)n(CC(=O)NCc2ccc(C(=N)N)cc2)c1=O [Example 109] | > 30 | < 30 | < 0.1 | <50.0
8 | CC(C)Nc1ncc(-c2cc(N)cc(NCCc3ccccc3)c2)n(CC(=O)NCc2ccc(C(=N)N)cc2)c1=O [Example 110, N-{4-[amino(imino)methyl]benzyl}-2-[6-{3-amino-5-[(2-phenylethyl)amino]phenyl}-3-(isopropylamino)-2-oxopyrazin-1 (2H)-yl]acetamide trifluoroacetate] | > 30 | > 30 | < 0.1 | <50.0
9 | CC(C)Nc1ncc(-c2cc(N)cc(NCCCc3ccccc3)c2)n(CC(=O)NCc2ccc(C(=N)N)cc2)c1=O [Example 111] | > 30 | > 30 | < 0.1 | <50.0
10 | CC(C)CC(=O)Nc1cc(N)cc(-c2cnc(NC(C)C)c(=O)n2CC(=O)NCc2ccc(C(=N)N)cc2)c1 [Example 112] | > 30 | < 30 | < 0.1 | <50.0
11 | CC(C)Nc1ncc(-c2cc(N)cc(NC(=O)Nc3ccccc3)c2)n(CC(=O)NCc2ccc(C(=N)N)cc2)c1=O [Example 113] | > 30 | > 30 | < 0.1 | <50.0
12 | CC(C)Nc1ncc(-c2cc(N)cc(NC(=O)NCc3ccccc3)c2)n(CC(=O)NCc2ccc(C(=N)N)cc2)c1=O [Example 114] | > 30 | > 30 | < 0.1 | <50.0
13 | CC(C)Nc1ncc(-c2cc(N)cc(C(F)(F)F)c2)n(CC(=O)NCc2cc(O)c(C(=N)N)c(F)c2)c1=O.O=C(O)C(F)(F)F [Example 116] | < 30 | > 30 | > 0.1 | <50.0
14 | CC(C)Nc1ncc(-c2cc(N)cc(C(=O)O)c2)n(CC(=O)NCc2ccc(C(=N)N)cc2)c1=O.O=C(O)C(F)(F)F [Example 118] | > 30 | > 30 | < 0.1 | <50.0
15 | COCCNC(=O)c1cc(N)cc(-c2cnc(NC(C)C)c(=O)n2CC(=O)NCc2ccc(C(=N)N)cc2)c1.O=C(O)C(F)(F)F [Example 119] | > 30 | < 30 | < 0.1 | <50.0
16 | COc1cc(N)cc(-c2cnc(NC(C)C)c(=O)n2CC(=O)NCc2cc(O)c(C(=N)N)c(F)c2)c1.Cl.Cl [Example 123] | > 30 | > 30 | < 0.1 | <50.0

Row | Compound | IC50 [1] [µM] | IC50 [2] [µM] | IC50 [3] [µM] | PT (Prothrombin time) 2xPT [4] [µM]
17 | CC(C)Nc1ncc(-c2cc(N)cc(C(=O)OC(C)C)c2)n(CC(=O)NCc2ccc(C(=N)N)cc2)c1=O.O=C(O)C(F)(F)F [Example 124, Isopropyl 3-amino-5-[1-[2-({4-[amino(imino)methyl]benzyl}amino)-2-oxoethyl]-5-(isopropylamino)-6-oxo-1,6-dihydropyrazin-2-yl]benzoate] | > 30 | > 30 | < 0.1 | <50.0
18 | CC[C@H](C)NC(=O)c1cc(N)cc(-c2cnc(NC(C)C)c(=O)n2CC(=O)NCc2ccc(C(=N)N)cc2)c1.O=C(O)C(F)(F)F [Example 127] | > 30 | < 30 | < 0.1 | <50.0
19 | CCCC(C)C(=O)Nc1cc(N)cc(-c2cnc(NC(C)C)c(=O)n2CC(=O)NCc2ccc(C(=N)N)cc2)c1.O=C(O)C(F)(F)F.O=C(O)C(F)(F)F (stereo not shown) [Example 128] | > 30 | > 30 | < 0.1 | <50.0
20 | CCCC(=O)Nc1cc(N)cc(-c2cnc(NC(C)C)c(=O)n2CC(=O)NCc2ccc(C(=N)N)cc2)c1.O=C(O)C(F)(F)F.O=C(O)C(F)(F)F [Example 130] | > 30 | < 30 | < 0.1 | <50.0
21 | CCC(C)C(=O)Nc1cc(N)cc(-c2cnc(NC(C)C)c(=O)n2CC(=O)NCc2ccc(C(=N)N)cc2)c1.O=C(O)C(F)(F)F.O=C(O)C(F)(F)F (stereo not shown) [Example 131] | > 30 | < 30 | < 0.1 | <50.0
22 | CC(C)Nc1ncc(-c2cc(N)cc(NC(=O)CC(C)(C)C)c2)n(CC(=O)NCc2ccc(C(=N)N)cc2)c1=O.O=C(O)C(F)(F)F.O=C(O)C(F)(F)F [Example 133] | > 30 | < 30 | < 0.1 | <50.0
23 | CCC(CC)C(=O)Nc1cc(N)cc(-c2cnc(NC(C)C)c(=O)n2CC(=O)NCc2ccc(C(=N)N)cc2)c1.O=C(O)C(F)(F)F.O=C(O)C(F)(F)F [Example 134] | > 30 | < 30 | < 0.1 | <50.0
24 | CC(C)CCC(=O)Nc1cc(N)cc(-c2cnc(NC(C)C)c(=O)n2CC(=O)NCc2ccc(C(=N)N)cc2)c1.O=C(O)C(F)(F)F.O=C(O)C(F)(F)F [Example 135] | > 30 | < 30 | < 0.1 | <50.0
25 | CCCC(CCC)C(=O)Nc1cc(N)cc(-c2cnc(NC(C)C)c(=O)n2CC(=O)NCc2ccc(C(=N)N)cc2)c1.O=C(O)C(F)(F)F.O=C(O)C(F)(F)F [Example 136] | > 30 | < 30 | < 0.1 | <50.0
26 | CCCCC(CC)C(=O)Nc1cc(N)cc(-c2cnc(NC(C)C)c(=O)n2CC(=O)NCc2ccc(C(=N)N)cc2)c1.O=C(O)C(F)(F)F.O=C(O)C(F)(F)F (stereo not shown) [Example 137] | > 30 | < 30 | < 0.1 | <50.0
27 | CC(CC(=O)Nc1cc(N)cc(-c2cnc(NC(C)C)c(=O)n2CC(=O)NCc2ccc(C(=N)N)cc2)c1)CC(C)(C)C.O=C(O)C(F)(F)F.O=C(O)C(F)(F)F (stereo not shown) [Example 139] | > 30 | < 30 | < 0.1 | <50.0
28 | CC(C)Nc1ncc(-c2cc(N)cc(NC(=O)[C@H]3C[C@@H]3c3ccccc3)c2)n(CC(=O)NCc2ccc(C(=N)N)cc2)c1=O.O=C(O)C(F)(F)F.O=C(O)C(F)(F)F [Example 140] | > 30 | < 30 | < 0.1 | <50.0
29 | CC(C)Nc1ncc(-c2cc(N)cc(NC(=O)CC3CCCC3)c2)n(CC(=O)NCc2ccc(C(=N)N)cc2)c1=O.O=C(O)C(F)(F)F.O=C(O)C(F)(F)F [Example 141] | > 30 | < 30 | < 0.1 | <50.0
30 | CC(C)Nc1ncc(-c2cc(N)cc(NC(=O)c3ccc(N(C)C)cc3)c2)n(CC(=O)NCc2ccc(C(=N)N)cc2)c1=O.O=C(O)C(F)(F)F.O=C(O)C(F)(F)F [Example 142] | > 30 | > 30 | < 0.1 | <50.0
31 | CCC(C(=O)Nc1cc(N)cc(-c2cnc(NC(C)C)c(=O)n2CC(=O)NCc2ccc(C(=N)N)cc2)c1)c1ccccc1.O=C(O)C(F)(F)F.O=C(O)C(F)(F)F (stereo not shown) [Example 143] | > 30 | < 30 | < 0.1 | <50.0
